Assay results from patent publication US20260373132A1, “PERK INHIBITORHC-5404 IN COMBINATION WITH ANTI-PD-1 ANTIBODY AND/OR AN ANTIANGIOGENETIC AGENT FOR USE IN THE TREATMENT OF CANCER” (HIBERCELL, INC., priority 2022, published 2026).

Tests used:
PERK = target: T1, PERK (Homo sapiens, UniProt Q9NZJ5); experiment: cell-free FRET-based biochemical assay, PERK; conditions: role: inhibitor; ratio of IC50 values
T1 construct: purchased Carna
Method: The potency of HC-5404 against four ISR kinases was evaluated in cell-free FRET-based biochemical assays, following manufacturer's instructions (Carna).
Cell-free biochemical assays were used to evaluate the selectivity of HC-5404 for PERK, relative to the ISR kinases GCN2, HRI, and PKR. In these assays, recombinant target kinases were incubated with […] and an eIF2α-based fluorogenic substrate, and kinase activity was evaluated in presence of HC-5404 across a concentration series.

BLK = BLK (Homo sapiens, UniProt P51451); experiment: KINOMEScan biochemical panel assay, BLK; assay type: binding; conditions: 1000 nM
Method: The selectivity of HC-5404 against the broader kinome was then evaluated using a KINOMEScan biochemical panel assay that measured binding against 468 unique kinases, including 403 wild-type human kinases and 59 mutant isoforms.

pPERK in A498 tumors = experiment: pPERK in A498 tumor xenografts; assay type: in vivo, mouse
Method: Samples were put in 500 μL of Novex lysis buffer consisting of 2× Novex Tris-Glycine SDS sample buffer (ThermoFisher LC2676), 1× Phosphatase Inhibitor Cocktail III (Sigma P0044), 1× PhosphataseArrest I (Gbioscience 113P-D), 1×2-mercaptoethanol (Gibco 21985023), 1× Benzonase (EMD Millipore Corp 70746-3), and 1× Protease inhibitor cocktail tablet (Roche/Sigma 11836170001). Samples were homogenized with the Polytron and heated for 10 min at 95 °C. They were then centrifuged at max speed for 10 min and the supernatant was transferred. Protein concentrations of samples were measured using the Pierce 660 nm Protein assay kit (Thermo Scientific 22660) according to the manufacturer's instructions.
Western Blot analysis was performed on the SimpleWestern high-throughput protein analysis platform (ProteinSimple 004-650) according to manufacturer's protocol using a 12-230 kDA Separation Module (ProteinSimple SM-W004) and Total Protein Detection Module (ProteinSimple DM-TP01). Antibodies used were: (Add info for other antibodies used) pPERK (Lilly; 1:50) and PERK (Cell Signaling Technology 5683; 1:200). All protein analytes were normalized to total protein loaded on capillary. […]

[1] = system: MB49 syngeneic bladder cancer model; experiment: MB49 syngeneic bladder cancer tumor growth; assay type: in vivo, mouse
Method: C57BL/6 mice were subcutaneously inoculated with MB49 cells, and treatment started on day 8 post cell inoculation. A group of animals (n=10/group) received either vehicle, HC-5404 (PO, BID) (3 mg/kg, 10 mg/kg, or 30 mg/kg), 5 mg/kg anti-PD-1 antibody (aPD-1) (RMP1-14) (IP, BIW), or the combination of both. At various timepoints, animals were sacrificed, and flow cytometry was performed on blood or single cell suspensions from tumors or lymph nodes (n=6).
MB49 (lot #18B016) mouse urothelial carcinoma cell line was purchased from Sigma—The European Collection of Authenticated Cell Cultures (ECACC). Cells were free of human and animal pathogens as tested by h-IMPACT-I and IMPACT-III (IDEXX Bioresearch, Columbia, MO). Additionally, the genetic profile of the cells matched with the ECACC reference standard as tested by STR based DNA fingerprinting assay. Cells were maintained in DMEM with 10% FBS, and cultured up to 4 passages prior to implantation. Cells were harvested at ~80% confluence, washed twice with DMEM without FBS and suspended in DMEM without FBS at 5×10^6 cells/mL for implantation.
[…] (7-8 week of age) were implanted into the right flank area subcutaneously under Isoflurane anesthesia with 0.5×10^6 MB49 cells/mouse in a total volume of […] on Day 0. Animals were randomized into treatment groups when the average tumor volume reached ~50 mm^3 on Day 5 post inoculation.
Tumor volume was measured twice weekly.
Tumor volume was calculated using the formula [tumor volume (mm^3)=π/6×length×width^2) and plotted as means±SEM. The % T/C (ratio between the tumor volume in the treated group and in the control group) was calculated by the formula 100×ΔT/ΔC, if ΔT>0 of the mean values. ΔT, mean tumor volume of the drug-treated group on the observation day of the study—mean tumor volume of the drug-treated group on initial day of dosing; ΔC, mean tumor volume of the control group on the observation day of the study—mean tumor volume of the control group on initial day of dosing. Regression was calculated using the formula=100×ΔT/Tinitial, if ΔT<0. Animals with <14 mm^3 tumor volume for three consecutive measurements were considered as complete responders and tumors with >50% regressions were partial responders.
This example investigated the effect of HC-5404, aPD-1, and HC-5404 in combination with aPD-1 on myeloid cells in tumor microenvironment and T-cell activation following procedures analogous to those described above using MB49 syngeneic model. […] Mice with established syngeneic MB49 tumors were randomized 6 days post tumor inoculation into groups that received either vehicle (0.5% methylcellulose in water, BID, PO), HC-5404 (10 or 30 mg/kg, BID, PO), anti-PD-1 Ab (10 mg/kg, BIW), or both HC-5404 and anti-PD-1.

HMGB1 in 786-O xenograft = experiment: HMGB1 IHC in 786-O xenografts; assay type: in vivo, mouse; conditions: 30 mg/kg, compared to vehicle (FIG. 4D)
Method: 786-O tumor cells were maintained in vitro with MEM medium supplemented with 10% heat inactivated fetal bovine serum and 0.01 mM NEAA, at 37 °C in an atmosphere of 5% CO2. Each mouse was inoculated subcutaneously at the right front region with 786-O tumor cells (5×106) in 0.1 ml of PBS (1:1 matrigel) for tumor development. The randomization for efficacy study began when the mean tumor size reached approximately 200-300 mm^3, preferably to initiate with 250 mm^3. […]
Paraffin sections of tumor samples were stained on slides for HMGB1 using the Abcam antibody (cat #ab18256) and chromogenic DAB staining on Bond Rx (Leica Biosystems). The slides were digitized by Leica AT2 slide scanner with 40× objective. The scanned images were analyzed using custom-written macro in ImageJ/FIJI (NIH) to measure nuclear and non-nuclear signal (FIGS. 4C and 4D).

T1 sequence (Q9NZJ5 30-1116): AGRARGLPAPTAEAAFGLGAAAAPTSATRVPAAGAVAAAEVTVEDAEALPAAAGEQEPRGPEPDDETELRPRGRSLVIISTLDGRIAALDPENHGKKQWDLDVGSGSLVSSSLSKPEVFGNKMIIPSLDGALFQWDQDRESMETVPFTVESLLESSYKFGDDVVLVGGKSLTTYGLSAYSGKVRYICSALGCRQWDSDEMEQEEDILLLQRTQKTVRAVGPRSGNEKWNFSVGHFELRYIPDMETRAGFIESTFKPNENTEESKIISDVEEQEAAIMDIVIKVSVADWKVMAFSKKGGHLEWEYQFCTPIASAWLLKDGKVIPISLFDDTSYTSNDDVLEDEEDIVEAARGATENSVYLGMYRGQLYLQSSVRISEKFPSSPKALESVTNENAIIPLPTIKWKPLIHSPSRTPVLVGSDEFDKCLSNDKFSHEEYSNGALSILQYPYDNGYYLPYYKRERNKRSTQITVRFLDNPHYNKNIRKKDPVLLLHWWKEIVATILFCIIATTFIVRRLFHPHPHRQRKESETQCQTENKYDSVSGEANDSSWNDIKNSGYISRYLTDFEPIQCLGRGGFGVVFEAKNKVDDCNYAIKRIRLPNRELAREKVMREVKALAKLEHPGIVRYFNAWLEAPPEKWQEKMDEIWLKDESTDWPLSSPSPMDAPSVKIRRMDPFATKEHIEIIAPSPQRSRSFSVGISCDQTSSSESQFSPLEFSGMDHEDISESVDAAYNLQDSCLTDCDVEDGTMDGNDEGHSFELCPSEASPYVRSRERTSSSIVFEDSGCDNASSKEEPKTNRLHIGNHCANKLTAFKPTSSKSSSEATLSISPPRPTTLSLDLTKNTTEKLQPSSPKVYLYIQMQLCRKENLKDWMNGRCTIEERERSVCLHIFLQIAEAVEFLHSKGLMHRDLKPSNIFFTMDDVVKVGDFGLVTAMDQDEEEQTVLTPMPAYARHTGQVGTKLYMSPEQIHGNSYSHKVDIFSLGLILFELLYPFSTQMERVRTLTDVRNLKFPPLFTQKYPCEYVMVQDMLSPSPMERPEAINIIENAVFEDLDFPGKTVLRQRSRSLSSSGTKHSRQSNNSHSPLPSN
Chain of BLK (P51451 whole entry, canonical isoform): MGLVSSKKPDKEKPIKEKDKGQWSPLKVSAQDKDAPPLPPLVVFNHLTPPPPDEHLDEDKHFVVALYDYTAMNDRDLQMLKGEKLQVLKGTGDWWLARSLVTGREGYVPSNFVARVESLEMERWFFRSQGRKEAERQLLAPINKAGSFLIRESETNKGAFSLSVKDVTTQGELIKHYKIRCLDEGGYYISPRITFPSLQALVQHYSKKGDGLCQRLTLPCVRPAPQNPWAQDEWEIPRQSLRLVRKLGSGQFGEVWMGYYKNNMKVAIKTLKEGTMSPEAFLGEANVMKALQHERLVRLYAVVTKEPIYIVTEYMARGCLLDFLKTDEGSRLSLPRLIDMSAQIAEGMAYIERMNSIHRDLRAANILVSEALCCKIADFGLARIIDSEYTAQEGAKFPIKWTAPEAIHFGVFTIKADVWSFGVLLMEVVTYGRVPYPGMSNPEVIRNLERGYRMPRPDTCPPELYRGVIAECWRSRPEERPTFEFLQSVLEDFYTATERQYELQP

biochemical selectivity for PERK over GCN2, HRI and PKR (PERK): > 2000 fold
inhibition of BLK (BLK): inhibited
SMILES: Cc1cc(NC(=O)[C@H](O)c2cc(F)cc(F)c2)ccc1-c1cnc(N)c(C(=O)NC(C)C)c1 [HC-5404, (R)-2-amino-5-(4-(2-(3,5-difluorophenyl)-2-hydroxyacetamido)-2-methylphenyl)-N-isopropylnicotinamide]
pPERK expression in A498 (pPERK in A498 tumors; 30 mg/kg PO BID, seven days (FIG. 30)): strongly inhibited pPERK expression
pPERK levels in A498 (pPERK in A498 tumors; DC-101 study, 4 days of treatment (FIG. 37)): inhibited the pPERK signal
TGI % ([1]; Experiment #1, HC-5404 30 mpk, aPD-1, alone or combined): 52.99%
TGI % ([1]; Experiment #2, HC-5404 30 mpk, aPD-1, alone or combined): 10.64%
tumor growth inhibition (TGI) ([1]; HC-5404 PO BID, aPD-1 5 mg/kg IP BIW, alone or combined): 32%
TGI %, average ([1]; average of two independent studies, HC-5404 30 mpk, aPD-1, alone or combined): 31.82%
HMGB1 cytoplasmic expression (HMGB1 in 786-O xenograft): induced
